{"source": "patent US20140161720A1", "about": "“TREATMENT OF ANGIOGENIC- OR VASCULAR-ASSOCIATED DISEASES” (THE GENERAL HOSPITAL CORPORATION, priority 2011, published 2014)", "system": "orthotopic 4T1 mammary tumors", "assay": "Tumor growth delay study, 4T1", "type": "in vivo, female SCID mice", "conditions": "4T1 tumors, start ~200 mm^3, 37.5 mg/kg daily i.p.", "description": "To assess the anti-tumor effects of DAL, female SCID mice bearing orthotopic 4T1 or E0771 mammary tumors were treated with daily i.p. injections of 37.5 mg/kg DAL or saline. In order to calculate tumor volumes, the major and minor axis diameters were measured with calipers and the tumor volume was calculated by assuming a spherical shape based on the average of these two dimensions. The tumors were implanted in the mammary fat pad and allowed to grow to a starting size (small ˜100 mm^3 tumors for E0771, large ˜200 mm^3 tumors for 4T1) over ˜2 weeks. To ensure that tumors in the two groups were of similar growth rates, the treatment with saline or DAL was begun in pairs of tumors with similar sizes and growth times. Tumor volumes were measured every other day until the tumors reached an average of ˜10 mm in diameter. Tumor growth was quantified with the doubling rate, and calculated by fitting an exponential growth curve to the data for tumor size versus time.\nAs shown in Example 3, DAL has an antivascular effect in orthotopic mammary tumors in mice. Thus, the antitumor effect of DAL was next assessed. […] The effect of DAL on the growth of orthotopic 4T1 and E0771 mammary tumors with daily treatment of DAL or saline was evaluated (FIG. 4A). 37.5 mg/kg of DAL was used for these experiments based on the pharmacokinetics results as well as in vitro and in vivo data. […]"}
{"molecule": "CC1(C)C=CC2=C(O1)C(=O)c1ccccc1C2=O", "note": "[DAL, dehydro-alpha-lapachone]", "values": [{"measurement": "tumor volume doubling time", "value": "11.21 ± 3.53", "unit": "days"}]}
